Experiments:
Type in all cases: in vivo
[1] = tested on: bleomycin-induced rat model of pulmonary fibrosis; assay: Blood inflammatory and pro-fibrotic cytokines (ELISA) in the bleomycin-induced rat model of pulmonary fibrosis; details: for bleomycin-induced changes of multiple inflammatory cytokines in the blood of rats (overall statement): compared with the model group, N=6-10
Method: (§1) The quarantine and domestication period was 1 week, after which rats were serpentinely grouped by body weight into control and interstitial pneumonia model groups. On day 0 of the study, rats in the model group were given a single dose of 5 mg/kg bleomycin by a single intratracheal injection of bleomycin. The rats in the control group were given a single drop of saline. Immediately after completion, the animals were placed in an upright position and rotated to facilitate uniform distribution of the drug in the lungs. The animals were placed prone in a warm environment for natural awakening. Animals were fed and watered freely after awakening.
(§2) After the last administration, rats in each group were fasted without water for 12 h, anesthetized by intraperitoneal injection of […] chloral hydrate (3.5 mL/kg), blood was taken from the abdominal aorta, and the serum was separated by centrifugation at 3500 rpm for 15 min. ELISA was performed to detect the cytokines TNF-α, IL-1β, IFN-γ, IL-6, TGF-β1, and IL-4 in alveolar lavage fluid and serum, MCP-1/CCL2, and to detect the content of HYP, MMP2, MMP9, αvβ6, and VEGF in lung tissues, the steps were the same as the standard procedure of the kit.

[2] = tested on: bleomycin-induced pulmonary fibrosis model in rats; assay: Pro-fibrotic proteins and type I collagen in lung tissue of the bleomycin-induced rat pulmonary fibrosis model; details: FIG. 2; for multiple pro-fibrotic proteins and collagen type I in rat lung tissues (overall statement): compared with the model group, N=3
Method: as §1, §2

[3] = tested on: bleomycin-induced pulmonary fibrosis model in rats; assay: Dexamethasone side effect indicators (blood lipid metabolism) in the bleomycin-induced rat pulmonary fibrosis model; details: FIG. 3; for leptin level compared with the normal control rats: bleomycin model rats
Method: as §1
Serum potassium, glucose, triglycerides (TGs), total cholesterol (TC), free fatty acid (FFA), high density lipoprotein (HDL-c), low density lipoprotein (LDL-c), corticosterone (Corticosterone), and blood glucose were measured. HDL-c), low-density lipoprotein cholesterol (LDL-c), corticosterone (CORT), insulin, leptin, 5-hydroxy tryptamine (5-HT), […] norepinephrine (NE).

[4] = SD rats, bleomycin 5 mg/kg intratracheal day 0, drug by gavage once daily days 1-28, FIG. 1
[5] = bleomycin decreased the level, drug once daily days 1-28, FIG. 1
[6] = bleomycin model rats, change statistically significant

In the case of CCCCCC(=O)O[C@]1(C(C)=O)CC[C@H]2[C@@H]3CCC4=CC(=O)CC[C@]4(C)[C@H]3CC[C@@]21C [hydroxyprogesterone caproate], the “blood level of IL-1β” value [1, 4] is reported as “significantly reduced”, the “blood level of IL-6” value [1, 4] is reported as “significantly reduced” and the “blood level of MCP-1” value [1, 4] is reported as “significantly reduced”. The “blood level of TGF-β1” value [1, 4] was “significantly reduced”, the “blood level of TNF-α” value [1, 4] was “significantly reduced” and the “blood level of IFN-γ” value [1, 5] was “significantly and statistically increased”. The “blood level of IL-4” value [1, 5] was “significantly and statistically increased”, the “bleomycin-induced changes of multiple inflammatory cytokines in the blood of rats (overall statement)” value ([1]; FIG. 1) was “significantly improve” and the “bleomycin-induced changes of multiple inflammatory cytokines in the blood of rats (overall statement)” value ([1]; FIG. 1, listed as 17-αhydroxyprogesterone) was “significantly ameliorated”. The “combined improvement effect on inflammatory and pro-fibrotic factors in the blood, compared with pirfenidone” value ([1]; versus positive control drug pirfenidone (54 mg/kg)) was “significantly better than that of the positive control drug pirfenidone”, the “CXCL-12 level in lung tissue” value ([2]; bleomycin model rats) was “reduced” and the “MMP9 level in lung tissue” value ([2]; bleomycin model rats) was “reduced”. The “collagen type I COL I protein level in lung tissue” value ([2]; bleomycin model rats) was “reduced”, the “MMP2 level in lung tissue” value [2, 6] was “reduced” and the “PDGF level in lung tissue” value [2, 6] was “reduced”. The “SMAD2 level in lung tissue” value [2, 6] was “reduced”, the “SMAD3 level in lung tissue” value [2, 6] was “reduced” and the “TGF-β1 level in lung tissue” value [2, 6] was “reduced”. For the same molecule, the “multiple pro-fibrotic proteins and collagen type I in rat lung tissues (overall statement)” value [2] was “significant inhibitory effects”, the “multiple pro-fibrotic proteins and collagen type I in rat lung tissues (overall statement)” value ([2]; listed as 17-αhydroxyprogesterone) was “significantly ameliorated” and the “leptin level compared with the normal control rats” value [3] was “significantly reduced”.
For C[C@@H]1C[C@H]2[C@@H]3CCC4=CC(=O)C=C[C@]4(C)[C@@]3(F)[C@@H](O)C[C@]2(C)[C@@]1(O)C(=O)CO [dexamethasone], the “leptin level compared with the normal control rats” value [3] was “significantly reduced”, the “total cholesterol in the blood” value ([3]; dexamethasone treatment in bleomycin model rats) was “increase” and the “triglycerides in the blood” value ([3]; dexamethasone treatment in bleomycin model rats, increase more pronounced than for total cholesterol) was “increase”.

Source: patent publication US20240299415A1, “TREATMENT METHOD FOR INTERSTITIAL PNEUMONIA” (priority 2020, published 2024)
